Laboratory results from paper PMC10914731, “Homo-BacPROTAC-induced degradation of ClpC1 as a strategy against drug-resistant mycobacteria” (Nature Communications, 2024).
Values after ≈ are worked out from the molar mass of the structure shown. Values joined by “and” are separate entries in the source; they are usually repeats but may differ in a detail not shown here. Equal values may be shown once. Read-outs that look alike come from different tables or passages of the source.

Assays:
[1] = Microsomal stability, human; assay type: in vitro ADME
Summary of the method: (§1)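 Clearance, expressed as % liver blood flow (%Qh), derived by the well-stirred model from first-order half-lives. Depletion monitored by HPLC-MS/MS in acetonitrile-stopped samples over time; 37 °C, NADPH 1 mM, microsomes 0.5 mg/ml, compound 1 µmol/l, Tris-HCl pH 7.5 with MgCl2.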

[2] = assay type: in vitro ADME, Rat
Summary of the method: as §1

[3] = assay type: in vitro ADME, Mice; settings: clearance in microsomes
Summary of the method: as §1

[4] = assay type: in vitro ADME, Human; settings: human, pH 7.4
[5] = target: His6-tagged ClpC1-NTD substrate, M. smegmatis ClpC1P1P2 (UniProt A0R574+P9WPC9); assay: biochemical; assay type: biochemical; settings: Msm
His6-tagged ClpC1-NTD substrate, M. smegmatis ClpC1P1P2, sequence (P9WPC9 1-156, looked up, natural form): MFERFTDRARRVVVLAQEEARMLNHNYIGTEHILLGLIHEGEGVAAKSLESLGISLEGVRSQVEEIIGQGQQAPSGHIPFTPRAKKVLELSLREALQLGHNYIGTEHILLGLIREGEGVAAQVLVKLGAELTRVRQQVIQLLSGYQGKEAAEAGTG
His6-tagged ClpC1-NTD substrate, M. smegmatis ClpC1P1P2, sequence (A0R574 whole entry): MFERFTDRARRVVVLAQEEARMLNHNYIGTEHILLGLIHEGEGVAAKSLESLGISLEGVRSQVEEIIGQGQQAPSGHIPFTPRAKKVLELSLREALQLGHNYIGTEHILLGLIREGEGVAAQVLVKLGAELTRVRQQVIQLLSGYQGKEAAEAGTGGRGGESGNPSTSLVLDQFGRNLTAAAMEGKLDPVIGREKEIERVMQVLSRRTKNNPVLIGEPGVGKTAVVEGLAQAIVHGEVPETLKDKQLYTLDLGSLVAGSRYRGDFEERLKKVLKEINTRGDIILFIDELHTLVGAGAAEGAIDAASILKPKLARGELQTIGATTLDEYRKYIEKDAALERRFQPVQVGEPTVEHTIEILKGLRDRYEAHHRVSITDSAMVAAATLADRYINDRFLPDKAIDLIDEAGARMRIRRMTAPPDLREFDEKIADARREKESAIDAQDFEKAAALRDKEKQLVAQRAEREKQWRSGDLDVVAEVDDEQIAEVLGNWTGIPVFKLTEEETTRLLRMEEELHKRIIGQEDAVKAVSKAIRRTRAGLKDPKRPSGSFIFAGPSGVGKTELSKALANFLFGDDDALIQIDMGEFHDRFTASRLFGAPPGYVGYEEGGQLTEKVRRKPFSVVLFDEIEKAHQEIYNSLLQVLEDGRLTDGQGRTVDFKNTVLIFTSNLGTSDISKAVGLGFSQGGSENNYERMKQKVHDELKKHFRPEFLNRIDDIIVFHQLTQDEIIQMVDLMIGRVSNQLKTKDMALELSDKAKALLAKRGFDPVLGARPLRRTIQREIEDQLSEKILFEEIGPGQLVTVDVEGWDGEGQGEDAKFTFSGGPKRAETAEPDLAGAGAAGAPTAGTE

Msm 607 = assay: microbe, parasite or virus in culture; assay type: cell-based
[6] = Hepatocyte stability, mice; assay type: in vitro ADME; settings: mouse, pH 7.4
Summary of the method: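 Parent depletion by HPLC-MS/MS in mouse hepatocyte suspension (50% serum, ~1 million cells/mL) with 1 µM compound over up to 6 h at 37 °C. Half-lives were scaled to % Qh using the well-stirred liver model.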

[7] = assay type: in vitro ADME, Rat; settings: rat, pH 7.4
Msm 700084 = assay: microbe, parasite or virus in culture; assay type: cell-based
[8] = target: ClpC1-NTD substrate, M. tuberculosis ClpC1P1P2 (Mycobacterium tuberculosis, UniProt P9WPC9); assay: biochemical; assay type: biochemical; settings: Mtb
ClpC1-NTD substrate, M. tuberculosis ClpC1P1P2, sequence (P9WPC5 whole entry): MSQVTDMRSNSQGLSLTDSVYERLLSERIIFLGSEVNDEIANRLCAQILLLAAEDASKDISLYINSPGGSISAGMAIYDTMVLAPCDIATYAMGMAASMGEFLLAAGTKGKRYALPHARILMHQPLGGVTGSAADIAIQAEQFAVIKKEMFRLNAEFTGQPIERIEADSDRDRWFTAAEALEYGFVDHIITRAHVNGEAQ
ClpC1-NTD substrate, M. tuberculosis ClpC1P1P2, sequence (P9WPC9 whole entry): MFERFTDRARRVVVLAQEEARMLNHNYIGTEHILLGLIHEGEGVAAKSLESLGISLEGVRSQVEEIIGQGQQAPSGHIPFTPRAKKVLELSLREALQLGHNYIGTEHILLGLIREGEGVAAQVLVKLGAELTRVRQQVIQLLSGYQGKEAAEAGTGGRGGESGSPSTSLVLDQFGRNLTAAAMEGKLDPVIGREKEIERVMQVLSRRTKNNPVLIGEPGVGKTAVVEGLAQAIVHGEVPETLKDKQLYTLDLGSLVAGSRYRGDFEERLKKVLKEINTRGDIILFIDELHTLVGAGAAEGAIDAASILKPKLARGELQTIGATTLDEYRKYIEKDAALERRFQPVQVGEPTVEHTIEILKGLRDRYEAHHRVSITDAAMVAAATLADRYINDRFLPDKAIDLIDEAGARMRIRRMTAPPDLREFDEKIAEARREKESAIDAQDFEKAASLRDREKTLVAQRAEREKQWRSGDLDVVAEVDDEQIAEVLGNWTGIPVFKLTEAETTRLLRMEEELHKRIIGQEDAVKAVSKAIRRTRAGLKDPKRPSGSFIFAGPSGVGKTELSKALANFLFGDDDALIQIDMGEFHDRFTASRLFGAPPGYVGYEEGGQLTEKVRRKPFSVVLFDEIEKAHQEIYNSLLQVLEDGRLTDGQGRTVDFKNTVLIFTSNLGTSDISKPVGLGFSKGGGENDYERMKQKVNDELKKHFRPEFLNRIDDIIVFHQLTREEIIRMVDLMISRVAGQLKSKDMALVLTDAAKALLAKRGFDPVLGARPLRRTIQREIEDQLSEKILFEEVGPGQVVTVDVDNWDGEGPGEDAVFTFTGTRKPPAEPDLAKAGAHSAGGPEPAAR
ClpC1-NTD substrate, M. tuberculosis ClpC1P1P2, sequence (P9WPC3 whole entry, further chain): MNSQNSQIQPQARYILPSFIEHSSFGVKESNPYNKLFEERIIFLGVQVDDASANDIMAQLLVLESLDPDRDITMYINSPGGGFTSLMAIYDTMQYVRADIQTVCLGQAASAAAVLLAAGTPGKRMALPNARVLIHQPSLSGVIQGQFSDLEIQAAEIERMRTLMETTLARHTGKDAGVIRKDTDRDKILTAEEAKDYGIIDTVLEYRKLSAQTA

Caco-2 monolayers = assay: in vitro; settings: human, Caco-2
Summary of the method: (§2)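 Values are bidirectional Caco-2 apparent permeabilities, P(A−B) and P(B−A), given in 10^-6 cm s-1. The efflux ratio divides P(B−A) by P(A−B), and intrinsic permeability averages the two directions.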

in vitro = settings: human
Summary of the method: as §2

[9] = target: ClpC1 NTD protein (M. tuberculosis) (Mycobacterium tuberculosis, UniProt P9WPC9); assay: biochemical; assay type: binding; settings: SPR
ClpC1 NTD protein (M. tuberculosis), sequence (P9WPC9 1-156, looked up, natural form): as the sequence (P9WPC9 1-156, looked up, natural form) above

[10] = system: M. tuberculosis H37Rv (ATCC 27294); assay: microbe, parasite or virus in culture; assay type: cell-based
[11] = system: Mtb H37Rv in THP-1 macrophages; assay: Intracellular MIC assay in THP-1 macrophages; assay type: cell-based, Mycobacterium tuberculosis; design: Emax: unit not given here
[12] = mean of the measurements, read-out: 1-Dmax, Mean
[13] = mean of the measurements, read-out: DC50, Mean

## CO[C@H](c1ccccc1)[C@@H]1NC(=O)[C@H](C)NC(=O)[C@H](C[C@@H](C)CO)N(C)C(=O)[C@H](Cc2cn(C)c3ccccc23)NC(=O)[C@H](Cc2cn(CCOCCOCCn3cc(C[C@@H]4NC(=O)[C@H](CC(C)C)N(C)C(=O)[C@H](C(C)C)NC(=O)[C@H]([C@H](OC)c5ccccc5)NC(=O)[C@H](C)NC(=O)[C@H](C[C@@H](C)CO)N(C)C(=O)[C@H](Cc5cn(C)c6ccccc56)NC4=O)nn3)nn2)NC(=O)[C@H](CC(C)C)N(C)C(=O)[C@H](C(C)C)NC1=O [Compound 11]
[1]; Human
  Microsomal Stability Human QH: <24.4%
[1]; clearance in microsomes
  Microsomal Stability Human: < 24 %Qh
[2]; Rat
  Microsomal Stability Rat QH: <23.1%
[2]; clearance in microsomes
  Microsomal Stability Rat: < 23 %Qh
[3]
  Microsomal Stability Mice: < 24 %Qh
[4]
  Hepatocyte Human: 12 %Qh
  Hepatocyte Stability Human QH: 12.386%
[5]; Measurement 1-6
  1-Dmax, single measurements: 84.8% and 87.6% and 91.1%
[5]; Measurement 1-6, read-out: 1-Dmax, single measurements
  1-Dmax (percent substrate remaining at maximal degradation): 85.6%
[5]; Measurement 1-6, read-out: DC50, single measurements
  DC50: 7.4 µM and 6.1 µM and 5 µM and 3.9 µM
[5]; [12]
  1-Dmax (percent substrate remaining at maximal degradation): 87%
[5]; [13]
  DC50: 5.6 µM
Msm 607; Mycolicibacterium smegmatis, 607, read-out: MIC Msm 607
  MIC: 1.6 µM (≈ 3.24 µg/mL)
Msm 607; Mycolicibacterium smegmatis, 607, read-out: Msm 607 MIC, single determinations
  MIC: 1.56 µM (≈ 3.16 µg/mL)
[6]
  Hepatocyte Mice: 15 %Qh
[7]
  Hepatocyte Rat: 6 %Qh
  Hepatocyte Stability Rat QH: 6.192%
Msm 700084; Mycolicibacterium smegmatis, 700084, single determinations, read-out: Msm 700084 MIC
  MIC: 1.56 µM (≈ 3.16 µg/mL)
Msm 700084; Mycolicibacterium smegmatis, 700084, read-out: MIC Msm 700084
  MIC: 1.6 µM (≈ 3.24 µg/mL)
[8]; Measurement 1-4
  1-Dmax, single measurements: 69.6%
[8]; Measurement 1-4, read-out: 1-Dmax, single measurements
  1-Dmax (percent substrate remaining at maximal degradation): 77.4%
[8]; Measurement 1-4, read-out: DC50, single measurements
  DC50: 4.7 µM and 5.4 µM
[8]; [12]
  1-Dmax (percent substrate remaining at maximal degradation): 74%
[8]; [13]
  DC50: 5.1 µM
Caco-2 monolayers
  Caco-2 Int. Perm: 2.9
In vitro; Caco-2
  efflux ratio: 2.6
In vitro; Caco-2, CACO permeability PEBA
  Papp B→A: 0.36 ×10⁻⁶ cm/s
In vitro; Caco-2, Caco-2 permeability P (A-B)
  Papp A→B: 1.6 ×10⁻⁶ cm/s
In vitro; Caco-2, Caco-2 permeability P (B-A)
  Papp B→A: 4.2 ×10⁻⁶ cm/s
[9]; individual measurements (source data), read-out: KD ClpC1-NTD
  Kd: 0.000306 µM and 0.000313 µM and 0.00072 µM and 0.000499 µM and 0.000412 µM and 0.000253 µM and 0.000262 µM
[9]; single independent measurements
  koff ClpC1-NTD: 0.0009 s⁻¹ and 0.0004 s⁻¹
[9]; read-out: ClpC1-NTD KD Mean ± SD
  Kd: 0.0004 ± 0.0002 µM
[10]; Mycobacterium tuberculosis, M. tuberculosis H37Rv strain, read-out: MIC Mtb H37Rv Mean ± SD
  MIC: 0.1 µM (≈ 0.203 µg/mL)
[10]; Mycobacterium tuberculosis, Mtb H37Rv (Supplementary Table 2), read-out: MIC Mtb
  MIC: 0.1 µM (≈ 0.203 µg/mL)
[10]; Mycobacterium tuberculosis, individual measurements (source data), read-out: Mtb MIC
  MIC: 0.097 µM (≈ 0.197 µg/mL)
[10]; Mycobacterium tuberculosis, single determinations, read-out: Mtb MIC
  MIC: 0.097 µM (≈ 0.197 µg/mL)
[10]; individual measurements (source data), read-out: Mtb MIC
  MIC: 0.097 µM (≈ 0.197 µg/mL)
[11]
  Emax: 0.51
